Target: human PDE1B enzyme (Homo sapiens (Human), UniProt Q01064)
Assay: IMAP TR-FRET PDE1B enzymatic assay
Assay type: biochemical
Conditions: negative log of half-maximal molar inhibitory concentration, 200 nM FAM-cAMP, values given as bins; for IC50: read-out: PDE1b (pIC50) (converted)
How it was run: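 Full-length GST-tagged human PDE1B (250 pg/well) in IMAP BSA buffer with 10 U/ml calmodulin and 2.5 mM CaCl2; compound pre-incubated 5 min at room temperature, then 200 nM (final) FAM-cAMP for 30 min. IMAP binding reagent/Tb added, 1 h; TR-FRET 520/490 ratio read. IC50 from sigmoidal dose-response fit.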

| SMILES | IC50 | PDE1b (pIC50) |
| --- | --- | --- |
| Cc1oc2ncnc(NC3(C)CC3)c2c1C(=O)NCc1ccnc(-n2ccnc2)c1 [Example 674, N-{[2-(1H-Imidazol-1-yl)pyridin-4-yl]methyl}-6-methyl-4-[(1-methylcyclopropyl)amino]furo[2,3-d]pyrimidine-5-carboxamide] | 10 to 100 nM |  |
| Cc1oc2ncnc(NC3(C)CC3)c2c1C(=O)NCc1ccnc(N2CCOCC2)c1 [Example 675, 6-Methyl-4-[(1-methylcyclopropyl)amino]-N-{[2-(morpholin-4-yl)pyridin-4-yl]methyl}furo[2,3-d]pyrimidine-5-carboxamide] | 10 to 100 nM |  |
| COc1nc(C)ncc1CNC(=O)c1c(C)oc2ncnc(NC3(C)CC3)c12 [Example 676, N-[(4-Methoxy-2-methylpyrimidin-5-yl)methyl]-6-methyl-4-[(1-methylcyclopropyl)amino]furo[2,3-d]pyrimidine-5-carboxamide] | 10 to 100 nM |  |
| Cc1oc2ncnc(NC3(C)CC3)c2c1C(=O)NCc1ccnc(Cl)n1 [Example 677, N-[(2-Chloropyrimidin-4-yl)methyl]-6-methyl-4-[(1-methylcyclopropyl)amino]furo[2,3-d]pyrimidine-5-carboxamide] | 10 to 100 nM |  |
| COc1ccc(CNC(=O)c2c(C)oc3ncnc(NC4(C)CC4)c23)nc1F [Example 678, N-[(6-Fluoro-5-methoxypyridin-2-yl)methyl]-6-methyl-4-[(1-methylcyclopropyl)amino]furo[2,3-d]pyrimidine-5-carboxamide] | 10 to 100 nM |  |
| Cc1ncc(CNC(=O)c2c(C)oc3ncnc(NC4(C)CC4)c23)cn1 [Example 679, 6-Methyl-4-[(1-methylcyclopropyl)amino]-N-[(2-methylpyrimidin-5-yl)methyl]furo[2,3-d]pyrimidine-5-carboxamide] | 10 to 100 nM |  |
| Cc1oc2ncnc(NC3(C)CC3)c2c1C(=O)NCc1nccc(C(F)(F)F)n1 [Example 680, 6-Methyl-4-[(1-methylcyclopropyl)amino]-N-{[4-(trifluoromethyl)pyrimidin-2-yl]methyl}furo[2,3-d]pyrimidine-5-carboxamide] | 10 to 100 nM |  |
| Cc1oc2ncnc(NC3(C)CC3)c2c1C(=O)N1Cc2nc(C3CC3)[nH]c(=O)c2C1 [Example 681, 2-Cyclopropyl-6-{6-methyl-4-[(1-methylcyclopropyl)amino]furo[2,3-d]pyrimidine-5-carbonyl}-3H,4H,5H,6H,7H-pyrrolo[3,4-d]pyrimidin-4-one] | 100 to 1000 nM |  |
| Cc1oc2ncnc(NC3(C)CC3)c2c1C(=O)N1Cc2nc(C(C)C)[nH]c(=O)c2C1 [Example 682, 6-{6-Methyl-4-[(1-methylcyclopropyl)amino]furo[2,3-d]pyrimidine-5-carbonyl}-2-(propan-2-yl)-3H,4H,5H,6H,7H-pyrrolo[3,4-d]pyrimidin-4-one] | 100 to 1000 nM |  |
| Cc1oc2ncnc(NC3(C)CC3)c2c1C(=O)N1CCn2nccc2C1 [Example 683, 6-Methyl-N-(1-methylcyclopropyl)-5-{4H,5H,6H,7H-pyrazolo[1,5-a]pyrazine-5-carbonyl}furo[2,3-d]pyrimidin-4-amine] | 10 to 100 nM |  |
| Cc1oc2ncnc(NC3(C)CC3)c2c1C(=O)N1CCn2c(cnc2C2CC2)C1 [Example 684, 5-{3-Cyclopropyl-5H,6H,7H,8H-imidazo[1,5-a]pyrazine-7-carbonyl}-6-methyl-N-(1-methylcyclopropyl)furo[2,3-d]pyrimidin-4-amine] | 100 to 1000 nM |  |
| COc1cc(CN(C)C(=O)c2c(C)oc3ncnc(NC4(C)CC4)c23)ncn1 [Example 685, N-[(6-Methoxypyrimidin-4-yl)methyl]-N,6-dimethyl-4-[(1-methylcyclopropyl)amino]furo[2,3-d]pyrimidine-5-carboxamide] | 100 to 1000 nM |  |
| Cc1oc2ncnc(NC3(C)CC3)c2c1C(=O)NCc1cc(C2CC2)ncn1 [Example 686, N-[(6-Cyclopropylpyrimidin-4-yl)methyl]-6-methyl-4-[(1-methylcyclopropyl)amino]furo[2,3-d]pyrimidine-5-carboxamide] |  | >8 |
| COc1nc(C2CC2)nc2c1CN(C(=O)c1c(C)oc3ncnc(NC4(C)CC4)c13)C2 [Example 687, 5-{2-Cyclopropyl-4-methoxy-5H,6H,7H-pyrrolo[3,4-d]pyrimidine-6-carbonyl}-6-methyl-N-(1-methylcyclopropyl)furo[2,3-d]pyrimidin-4-amine] | 10 to 100 nM |  |
| COc1nc(C(C)C)nc2c1CN(C(=O)c1c(C)oc3ncnc(NC4(C)CC4)c13)C2 [Example 688, 5-[4-Methoxy-2-(propan-2-yl)-5H,6H,7H-pyrrolo[3,4-d]pyrimidine-6-carbonyl]-6-methyl-N-(1-methylcyclopropyl)furo[2,3-d]pyrimidin-4-amine] | 10 to 100 nM |  |
| Cc1oc2ncnc(NC3(C)CC3)c2c1C(=O)NCc1ccnc(C2CC2)n1 [Example 689, N-[(2-Cyclopropylpyrimidin-4-yl)methyl]-6-methyl-4-[(1-methylcyclopropyl)amino]furo[2,3-d]pyrimidine-5-carboxamide] | 10 to 100 nM |  |

| SMILES | IC50 | PDE1b (pIC50) |
| --- | --- | --- |
| Cc1oc2ncnc(NC3(C)CC3)c2c1C(=O)N1CCc2cnc(Cl)nc2C1 [Example 690, 5-{2-Chloro-5H,6H,7H,8H-pyrido[3,4-d]pyrimidine-7-carbonyl}-6-methyl-N-(1-methylcyclopropyl)furo[2,3-d]pyrimidin-4-amine] | 10 to 100 nM |  |
| Cc1oc2ncnc(NC3(C)CC3)c2c1C(=O)NCc1ncc(C(C)(C)C)o1 [Example 691, N-[(5-tert-Butyl-1,3-oxazol-2-yl)methyl]-6-methyl-4-[(1-methylcyclopropyl)amino]furo[2,3-d]pyrimidine-5-carboxamide] | 10 to 100 nM |  |
| Cc1oc2ncnc(NC3(C)CC3)c2c1C(=O)N(C)Cc1ncco1 [Example 692, N,6-Dimethyl-4-[(1-methylcyclopropyl)amino]-N-(1,3-oxazol-2-ylmethyl)furo[2,3-d]pyrimidine-5-carboxamide] | 100 to 1000 nM |  |
| Cc1oc2ncnc(NC3(C)CC3)c2c1C(=O)NCCc1cnc(C2CC2)nc1 [Example 693, N-[2-(2-Cyclopropylpyrimidin-5-yl)ethyl]-6-methyl-4-[(1-methylcyclopropyl)amino]furo[2,3-d]pyrimidine-5-carboxamide] | 100 to 1000 nM |  |
| Cc1oc2ncnc(NC3(C)CC3)c2c1C(=O)N1CCn2c(C3CC3)nc(Cl)c2C1 [Example 694, 5-{1-Chloro-3-cyclopropyl-5H,6H,7H,8H-imidazo[1,5-a]pyrazine-7-carbonyl}-6-methyl-N-(1-methylcyclopropyl)furo[2,3-d]pyrimidin-4-amine] | 10 to 100 nM |  |
| Cc1oc2ncnc(NC3(C)CC3)c2c1C(=O)N1CCn2c(C3CC3)nc(I)c2C1 [Example 695, 5-{3-Cyclopropyl-1-iodo-5H,6H,7H,8H-imidazo[1,5-a]pyrazine-7-carbonyl}-6-methyl-N-(1-methylcyclopropyl)furo[2,3-d]pyrimidin-4-amine] | 10 to 100 nM |  |
| Cc1oc2ncnc(NC3(C)CC3)c2c1C(=O)NCc1ncc(C(F)(F)F)cn1 [Example 696, 6-Methyl-4-[(1-methylcyclopropyl)amino]-N-{[5-(trifluoromethyl)pyrimidin-2-yl]methyl}furo[2,3-d]pyrimidine-5-carboxamide] | 10 to 100 nM |  |
| Cc1cccc(CNC(=O)c2c(C)oc3ncnc(NC4(C)CC4)c23)n1 [Example 697, 6-Methyl-4-[(1-methylcyclopropyl)amino]-N-[(6-methylpyridin-2-yl)methyl]furo[2,3-d]pyrimidine-5-carboxamide] | 10 to 100 nM |  |
| COc1ncc(CNC(=O)c2c(C)oc3ncnc(NC4(C)CC4)c23)cn1 [Example 698, N-[(2-Methoxypyrimidin-5-yl)methyl]-6-methyl-4-[(1-methylcyclopropyl)amino]furo[2,3-d]pyrimidine-5-carboxamide] |  | >8 |
| COc1ncc2c(n1)CN(C(=O)c1c(C)oc3ncnc(NC4(C)CC4)c13)CC2 [Example 699, 5-{2-Methoxy-5H,6H,7H,8H-pyrido[3,4-d]pyrimidine-7-carbonyl}-6-methyl-N-(1-methylcyclopropyl)furo[2,3-d]pyrimidin-4-amine] | 100 to 1000 nM |  |
| Cc1csc(CN(C)C(=O)c2c(C)oc3ncnc(NC4(C)CC4)c23)n1 [Example 700, N,6-Dimethyl-N-[(4-methyl-1,3-thiazol-2-yl)methyl]-4-[(1-methylcyclopropyl)amino]furo[2,3-d]pyrimidine-5-carboxamide] | 10 to 100 nM |  |
| Cc1oc2ncnc(NC3(C)CC3)c2c1C(=O)N(C)Cc1nccs1 [Example 701, N,6-Dimethyl-4-[(1-methylcyclopropyl)amino]-N-(1,3-thiazol-2-ylmethyl)furo[2,3-d]pyrimidine-5-carboxamide] | 100 to 1000 nM |  |
| Cc1cnc(CN(C)C(=O)c2c(C)oc3ncnc(NC4(C)CC4)c23)s1 [Example 702, N,6-Dimethyl-N-[(5-methyl-1,3-thiazol-2-yl)methyl]-4-[(1-methylcyclopropyl)amino]furo[2,3-d]pyrimidine-5-carboxamide] | 10 to 100 nM |  |
| Cc1csc(CNC(=O)c2c(C)oc3ncnc(NC4(C)CC4)c23)n1 [Example 703, 6-Methyl-N-[(4-methyl-1,3-thiazol-2-yl)methyl]-4-[(1-methylcyclopropyl)amino]furo[2,3-d]pyrimidine-5-carboxamide] | 10 to 100 nM |  |
| Cc1oc2ncnc(NC3(C)CC3)c2c1C(=O)NCc1nc(C(F)(F)F)cs1 [Example 704, 6-Methyl-4-[(1-methylcyclopropyl)amino]-N-{[4-(trifluoromethyl)-1,3-thiazol-2-yl]methyl}furo[2,3-d]pyrimidine-5-carboxamide] |  | >8 |
| Cc1cnc(CNC(=O)c2c(C)oc3ncnc(NC4(C)CC4)c23)nc1 [Example 705, 6-Methyl-4-[(1-methylcyclopropyl)amino]-N-[(5-methylpyrimidin-2-yl)methyl]furo[2,3-d]pyrimidine-5-carboxamide] |  | >8 |
